# Experimental data published in PubChem BioAssay (NCI).
#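 Exposure lasted 48 hours, with cells grown in 96-well plates and compounds tested at five concentrations. Definition used: TGI = concentration required for complete inhibition of growth.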
# Key:
# Assay in all cases: NCI tumour cell line growth inhibition, 48 h
# PC-3 prostate = tested on: PC-3 prostate
# MDA-N = tested on: MDA-N
# HOP-62 NSCLC = tested on: HOP-62 NSCLC
# SK-OV-3 ovarian = tested on: SK-OV-3 ovarian
# CCRF-CEM leukemia = tested on: CCRF-CEM leukemia
# IGROV1 ovarian = tested on: IGROV1 ovarian
# HL-60(TB) leukemia = tested on: HL-60(TB) leukemia
# SK-MEL-5 melanoma = tested on: SK-MEL-5 melanoma
# SR leukemia = tested on: SR leukemia
# 786-0 renal = tested on: 786-0 renal
# MALME-3M melanoma = tested on: MALME-3M melanoma
# SK-MEL-28 melanoma = tested on: SK-MEL-28 melanoma
# MOLT-4 leukemia = tested on: MOLT-4 leukemia
# M14 melanoma = tested on: M14 melanoma
# OVCAR-5 ovarian = tested on: OVCAR-5 ovarian
# OVCAR-3 ovarian = tested on: OVCAR-3 ovarian
# OVCAR-4 ovarian = tested on: OVCAR-4 ovarian
# UO-31 renal = tested on: UO-31 renal
# TK-10 renal = tested on: TK-10 renal
# HCC-2998 colon = tested on: HCC-2998 colon
# BT-549 breast = tested on: BT-549 breast
# SNB-19 CNS = tested on: SNB-19 CNS
# COLO 205 colon = tested on: COLO 205 colon
# U251 CNS = tested on: U251 CNS
# RXF 393 renal = tested on: RXF 393 renal
# ACHN renal = tested on: ACHN renal
# NCI-H460 lung = tested on: NCI-H460 lung
# SN12C renal = tested on: SN12C renal
# OVCAR-8 ovarian = tested on: OVCAR-8 ovarian
# NCI-H226 lung = tested on: NCI-H226 lung
# K-562 leukemia = tested on: K-562 leukemia
# SF-539 CNS = tested on: SF-539 CNS
# HT29 colon = tested on: HT29 colon
# UACC-257 melanoma = tested on: UACC-257 melanoma
# SW-620 colon = tested on: SW-620 colon
# NCI-H23 lung = tested on: NCI-H23 lung
# T-47D breast = tested on: T-47D breast
# HOP-92 NSCLC = tested on: HOP-92 NSCLC
# LOX IMVI melanoma = tested on: LOX IMVI melanoma
# SF-295 CNS = tested on: SF-295 CNS
# MDA-MB-435 = tested on: MDA-MB-435
# DU-145 prostate = tested on: DU-145 prostate
# NCI-H522 lung = tested on: NCI-H522 lung
# HCT-15 colon = tested on: HCT-15 colon
# MDA-MB-231 breast = tested on: MDA-MB-231 breast
# A498 renal = tested on: A498 renal
# HCT-116 colon = tested on: HCT-116 colon
# SK-MEL-2 melanoma = tested on: SK-MEL-2 melanoma
# RPMI-8226 leukemia = tested on: RPMI-8226 leukemia
# SNB-75 CNS = tested on: SNB-75 CNS
# NCI/ADR-RES ovarian = tested on: NCI/ADR-RES ovarian
# A549 NSCLC = tested on: A549 NSCLC
# UACC-62 melanoma = tested on: UACC-62 melanoma
# KM12 colon = tested on: KM12 colon
# SF-268 CNS = tested on: SF-268 CNS
# EKVX NSCLC = tested on: EKVX NSCLC
# HS 578T breast = tested on: HS 578T breast
# MCF7 breast = tested on: MCF7 breast
# CAKI-1 renal = tested on: CAKI-1 renal
# DLD-1 colon = tested on: DLD-1 colon
# SNB-78 CNS = tested on: SNB-78 CNS
# M19-MEL melanoma = tested on: M19-MEL melanoma
# LXFL 529 NSCLC = tested on: LXFL 529 NSCLC
# HOP-18 NSCLC = tested on: HOP-18 NSCLC
# KM20L2 colon = tested on: KM20L2 colon
# DMS 114 small cell lung = tested on: DMS 114 small cell lung
# DMS 273 small cell lung = tested on: DMS 273 small cell lung
compound,measurement,setting,value
Clc1nncc2sc(-c3ccccc3)nc12,TGI,PC-3 prostate,> 58.2 µM
same,TGI,MDA-N,51.4 µM
same,TGI,HOP-62 NSCLC,53.6 µM
same,TGI,SK-OV-3 ovarian,80.6 µM
same,TGI,CCRF-CEM leukemia,> 94.4 µM
same,TGI,IGROV1 ovarian,40.3 µM
same,TGI,HL-60(TB) leukemia,51.2 µM
same,TGI,SK-MEL-5 melanoma,46.3 µM
same,TGI,SR leukemia,> 100 µM
same,TGI,786-0 renal,> 100 µM
same,TGI,MALME-3M melanoma,70.6 µM
same,TGI,SK-MEL-28 melanoma,> 50.8 µM
same,TGI,MOLT-4 leukemia,> 97.2 µM
same,TGI,M14 melanoma,52.3 µM
same,TGI,OVCAR-5 ovarian,> 100 µM
same,TGI,OVCAR-3 ovarian,33.8 µM
same,TGI,OVCAR-4 ovarian,53.5 µM
same,TGI,UO-31 renal,55 µM
same,TGI,TK-10 renal,> 100 µM
same,TGI,HCC-2998 colon,> 45.7 µM
same,TGI,BT-549 breast,> 53.2 µM
same,TGI,SNB-19 CNS,51.4 µM
same,TGI,COLO 205 colon,> 86.5 µM
same,TGI,U251 CNS,> 53.2 µM
same,TGI,RXF 393 renal,50.7 µM
same,TGI,ACHN renal,> 84.9 µM
same,TGI,NCI-H460 lung,> 57.7 µM
same,TGI,SN12C renal,57.7 µM
same,TGI,OVCAR-8 ovarian,59.3 µM
same,TGI,NCI-H226 lung,> 82.4 µM
same,TGI,K-562 leukemia,> 100 µM
same,TGI,SF-539 CNS,74.6 µM
same,TGI,HT29 colon,68.5 µM
same,TGI,UACC-257 melanoma,56.7 µM
same,TGI,SW-620 colon,61.3 µM
same,TGI,NCI-H23 lung,52.9 µM
same,TGI,T-47D breast,> 100 µM
same,TGI,HOP-92 NSCLC,24 µM
same,TGI,LOX IMVI melanoma,50.2 µM
same,TGI,SF-295 CNS,> 77.4 µM
same,TGI,MDA-MB-435,49.6 µM
same,TGI,DU-145 prostate,31.8 µM
same,TGI,NCI-H522 lung,44.8 µM
same,TGI,HCT-15 colon,36.4 µM
same,TGI,MDA-MB-231 breast,56.1 µM
same,TGI,A498 renal,> 100 µM
same,TGI,HCT-116 colon,48.9 µM
same,TGI,SK-MEL-2 melanoma,47.4 µM
same,TGI,RPMI-8226 leukemia,> 100 µM
same,TGI,SNB-75 CNS,> 64.1 µM
same,TGI,NCI/ADR-RES ovarian,69.1 µM
same,TGI,A549 NSCLC,> 100 µM
same,TGI,UACC-62 melanoma,46.4 µM
same,TGI,KM12 colon,> 72.8 µM
same,TGI,SF-268 CNS,49 µM
same,TGI,EKVX NSCLC,12.5 µM
same,TGI,HS 578T breast,64.7 µM
same,TGI,MCF7 breast,> 92.6 µM
same,TGI,CAKI-1 renal,2.91 µM
C[C@H]1[C@H](C)CC[C@]2(C(=O)OC3OC(CO)C(O)C(O)C3O)CC[C@]3(C)C(=CC[C@@H]4[C@@]5(C)C[C@H]6OC(=O)c7cc(O)c(O)c(O)c7-c7c(cc(O)c(O)c7O)C(=O)O[C@@H]6C(CO)(CO)[C@@H]5CC[C@]43C)[C@H]12 (some centres undefined),TGI,PC-3 prostate,> 100 µM
same,TGI,MDA-N,72.7 µM
same,TGI,HOP-62 NSCLC,> 100 µM
same,TGI,SK-OV-3 ovarian,> 100 µM
same,TGI,CCRF-CEM leukemia,> 92.3 µM
same,TGI,IGROV1 ovarian,> 100 µM
same,TGI,HL-60(TB) leukemia,> 100 µM
same,TGI,SK-MEL-5 melanoma,> 100 µM
same,TGI,SR leukemia,> 96.3 µM
same,TGI,786-0 renal,> 52.2 µM
same,TGI,MALME-3M melanoma,> 100 µM
same,TGI,SK-MEL-28 melanoma,> 100 µM
same,TGI,MOLT-4 leukemia,> 74.4 µM
same,TGI,M14 melanoma,> 100 µM
same,TGI,OVCAR-5 ovarian,> 100 µM
same,TGI,OVCAR-3 ovarian,> 71.5 µM
same,TGI,OVCAR-4 ovarian,> 100 µM
same,TGI,UO-31 renal,> 100 µM
same,TGI,TK-10 renal,> 100 µM
same,TGI,HCC-2998 colon,> 100 µM
same,TGI,BT-549 breast,> 100 µM
same,TGI,SNB-19 CNS,> 100 µM
same,TGI,COLO 205 colon,> 100 µM
same,TGI,U251 CNS,42.2 µM
same,TGI,RXF 393 renal,> 100 µM
same,TGI,ACHN renal,> 100 µM
same,TGI,NCI-H460 lung,> 100 µM
same,TGI,SN12C renal,> 100 µM
same,TGI,OVCAR-8 ovarian,> 100 µM
same,TGI,NCI-H226 lung,> 100 µM
same,TGI,K-562 leukemia,> 100 µM
same,TGI,SF-539 CNS,> 100 µM
same,TGI,HT29 colon,> 56 µM
same,TGI,UACC-257 melanoma,> 100 µM
same,TGI,SW-620 colon,> 100 µM
same,TGI,NCI-H23 lung,> 100 µM
same,TGI,T-47D breast,> 100 µM
same,TGI,HOP-92 NSCLC,> 100 µM
same,TGI,LOX IMVI melanoma,34.5 µM
same,TGI,SF-295 CNS,> 100 µM
same,TGI,MDA-MB-435,36.2 µM
same,TGI,DU-145 prostate,> 100 µM
same,TGI,NCI-H522 lung,38.6 µM
same,TGI,HCT-15 colon,> 100 µM
same,TGI,MDA-MB-231 breast,33 µM
same,TGI,A498 renal,> 100 µM
same,TGI,HCT-116 colon,> 100 µM
same,TGI,SK-MEL-2 melanoma,> 100 µM
same,TGI,RPMI-8226 leukemia,> 100 µM
same,TGI,SNB-75 CNS,> 100 µM
same,TGI,NCI/ADR-RES ovarian,> 100 µM
same,TGI,A549 NSCLC,> 100 µM
same,TGI,UACC-62 melanoma,> 100 µM
same,TGI,KM12 colon,> 100 µM
same,TGI,SF-268 CNS,> 100 µM
same,TGI,EKVX NSCLC,> 100 µM
same,TGI,HS 578T breast,> 100 µM
same,TGI,MCF7 breast,38.5 µM
same,TGI,CAKI-1 renal,> 84.1 µM
COc1ccc(C2Oc3c(c(O)cc4c3[C@H](c3ccc(O)cc3O)[C@H](O)C(c3ccc(O)c(O)c3)O4)C[C@@H]2O)cc1O (some centres undefined),TGI,HOP-62 NSCLC,> 100 µM
same,TGI,SK-OV-3 ovarian,> 100 µM
same,TGI,CCRF-CEM leukemia,> 100 µM
same,TGI,IGROV1 ovarian,> 100 µM
same,TGI,HL-60(TB) leukemia,> 100 µM
same,TGI,DLD-1 colon,> 100 µM
same,TGI,SK-MEL-5 melanoma,> 100 µM
same,TGI,SNB-78 CNS,> 100 µM
same,TGI,SR leukemia,> 100 µM
same,TGI,786-0 renal,> 100 µM
same,TGI,MALME-3M melanoma,> 100 µM
same,TGI,MOLT-4 leukemia,> 100 µM
same,TGI,M14 melanoma,> 100 µM
same,TGI,OVCAR-5 ovarian,> 100 µM
same,TGI,OVCAR-3 ovarian,> 100 µM
same,TGI,OVCAR-4 ovarian,> 100 µM
same,TGI,UO-31 renal,> 100 µM
same,TGI,TK-10 renal,> 100 µM
same,TGI,HCC-2998 colon,> 100 µM
same,TGI,M19-MEL melanoma,> 100 µM
same,TGI,SNB-19 CNS,> 100 µM
same,TGI,COLO 205 colon,> 100 µM
same,TGI,LXFL 529 NSCLC,> 100 µM
same,TGI,U251 CNS,> 100 µM
same,TGI,RXF 393 renal,> 100 µM
same,TGI,ACHN renal,> 100 µM
same,TGI,NCI-H460 lung,> 100 µM
same,TGI,SN12C renal,> 100 µM
same,TGI,OVCAR-8 ovarian,> 100 µM
same,TGI,NCI-H226 lung,> 100 µM
same,TGI,K-562 leukemia,> 100 µM
same,TGI,SF-539 CNS,> 100 µM
same,TGI,HT29 colon,> 100 µM
same,TGI,UACC-257 melanoma,> 100 µM
same,TGI,SW-620 colon,> 100 µM
same,TGI,NCI-H23 lung,> 100 µM
same,TGI,HOP-92 NSCLC,> 100 µM
same,TGI,LOX IMVI melanoma,> 100 µM
same,TGI,SF-295 CNS,> 100 µM
same,TGI,HOP-18 NSCLC,> 100 µM
same,TGI,NCI-H522 lung,> 100 µM
same,TGI,HCT-15 colon,> 100 µM
same,TGI,A498 renal,> 100 µM
same,TGI,HCT-116 colon,> 100 µM
same,TGI,SK-MEL-2 melanoma,> 100 µM
same,TGI,RPMI-8226 leukemia,> 100 µM
same,TGI,KM20L2 colon,> 100 µM
same,TGI,SNB-75 CNS,> 100 µM
same,TGI,A549 NSCLC,> 100 µM
same,TGI,UACC-62 melanoma,> 100 µM
same,TGI,KM12 colon,> 100 µM
same,TGI,SF-268 CNS,> 100 µM
same,TGI,EKVX NSCLC,> 100 µM
same,TGI,DMS 114 small cell lung,> 100 µM
same,TGI,DMS 273 small cell lung,> 100 µM
same,TGI,CAKI-1 renal,> 100 µM
